Earlier results in patent publication US10325677B2, “Apparatus and computerized method for optimizing or generating a sigma profile for a molecule” (Texas Tech University System, priority 2014, dated 2019).

Details: published in the literature

Compound: Cn1c(=O)c2c(ncn2C)n(C)c1=O [Caffeine, caffeine]
- NRTL-SAC Conceptual Segment Number X: −0.105
- NRTL-SAC Conceptual Segment Number Y^+: 1.211
- NRTL-SAC Conceptual Segment Number Y^−: 0.282
- NRTL-SAC Conceptual Segment Number Z: 0.211
